Reference: US20010049393A1, “Methods for defining MYC target genes and uses thereof” (Whitehead Institute for Biomedical Research, priority 1999, published 2001)

Key:
MYC-ER [1] = assay: Cell cycle (S phase) entry after OHT treatment of MYC-ER transduced human fibroblasts; assay type: cell-based
Protocol: (§1) Amphotropic viral stocks were generated by co-transfection of pBabe-puro plasmid containing MYC-ER™ or Δ-MYC-ER™ (Littlewood, T. et al., 1995. Nucl. Acids Res. 23:1686-1690) together with Psi^−helper construct (Muller, A. et al., 1991. Mol. Cell. Biol. 11:1785-1792) in 293T cells. Subconfluent WI38 cells (ATCC cat #CCL75) grown in DMEM with 10% FCS were infected with 5 mL of viral supernatant on two consecutive days. The next day, cells were plated at ˜10^4cells/cm^2 in phenol-red free DME medium with 10% FCS, and selected in the presence of puromycin for pBABE vectors. Cells were grown to confluence, for seven to eight days, without media changes. Density arrested cells were induced with 200 nM OHT (4-hydroxy-tamoxifen) or serum starved (0.1% FCS) for 48 hours and then induced. Where specified, cells were exposed to cycloheximide (10 micrograms/mL) for 30 minutes prior to addition of OHT.
Treatment of the transduced cells with OHT, caused 20% of the cells to enter the cell cycle by 17 hours. In contrast, only 1-6% of, OHT-treated, non-MYC-ER expressing controls ever enter S phase. […]

MYC-ER [2] = assay: Northern blot of p21 transcript after OHT stimulation of MYC-ER; assay type: cell-based, human; details: within two hours after OHT stimulation, MYC-ER fibroblasts
Protocol: as §1
Northern blots were performed according to standard procedures (Ausubel, F. et al., 1990. Current Protocols in Molecular Biology. Wiley Interscience, New York). For cyclin D2 and p21, complete cDNA was used as probes. For FKBP52, a PCR amplicon of bps 1215-1767 (accession number M88279) was used; for FABP5 (PA-FA-BP), bps 60-481 (M94856); for ODC1, bps 1198-1984 (X55362); for PPIF (hCyP3), bps 404-803 (M80254); and for EIF5A, bps 46-512 (U17969). […]

4-hydroxytamoxifen [OHT] was tested, and the “cells entering the cell cycle” value (MYC-ER [1]; MYC-ER transduced fibroblasts, by 17 hours after OHT) was 20%, the “cells entering S phase” value (MYC-ER [1]; OHT-treated, non-MYC-ER expressing controls) was 1-6% and the “levels of p21” value (MYC-ER [2]) was “decreased”.
